Laboratory results as given in US11584707B2, “Non-coordinating anion type activators containing cation having aryldiamine groups and uses thereof” (ExxonMobil Chemical Patents Inc., priority 2019, dated 2023).
Where “and” joins values, the source holds several entries; their conditions need not be identical. Identical values can stand only once.

What was measured:
[1] = Ethylene-octene copolymerization (RUN A) in parallel pressure reactor; conditions: catalyst = 20 nmol, activator = 22 nmol, 1-octene = 100 μL, isohexane 5 mL, tri(n-octyl)aluminum = 500 nmol, T = 100° C., P = 100 PSI
Experimental: (§1) Unless stated otherwise, solutions of the metal complexes and activators were prepared in a drybox using toluene or methylcyclohexane. Concentrations were typically 0.2 mmol/L. Tri-n-octylaluminum (TNOAL, neat, AkzoNobel) was typically used as a scavenger. Concentration of the TNOAL solution in toluene was from 0.5 to 2 mmol/L.
(§2) Polymerizations were carried out in a parallel pressure reactor, as generally described in U.S. Pat. Nos. 6,306,658; 6,455,316; 6,489,168; WO 2000/009255; and Murphy, V. et al. (2003) “A Fully Integrated High-Throughput Screening Methodology for the Discovery of New Polyolefin Catalysts: Discovery of a New Class of High Temperature Single-Site Group (IV) Copolymerization Catalysts,” J. Am. Chem. Soc., v.125, pp. 4306-4317, each of which is incorporated by reference. The experiments were conducted in an inert atmosphere (N2) drybox using autoclaves equipped with an external heater for temperature control, glass inserts (internal volume of reactor=23.5 mL for C2 and C2/C8; 22.5 mL for C3 runs), septum inlets, regulated supply of nitrogen, ethylene and propylene, and equipped with disposable PEEK mechanical stirrers (800 RPM). The autoclaves were prepared by purging with dry nitrogen at 110° C. or 115° C. for 5 hours and then at 25° C. for 5 hours. Although the specific quantities, temperatures, solvents, reactants, reactant ratios, pressures, and other variables are frequently changed from one polymerization run to the next, the following describes a typical polymerization performed in a parallel pressure reactor.
(§3) RUN A: Ethylene-octene copolymerization (EO). A series of ethylene-octene polymerizations were performed in the parallel pressure reactor according to the procedure described above. In these studies rac-dimethylsilyl-bis(indenyl)hafnium dimethyl (MCN-1) was used along with ammonium borate activators. […] When sufficient polymer yield was attained (e.g., at least ˜10 mg), the polyethylene product was analyzed by Rapid GPC, described below.

[2] = Ethylene homopolymerization (RUN B) in parallel pressure reactor; conditions: catalyst = 20 nmol, activator = 22 nmol, isohexane 5 mL, tri(n-octyl)aluminum = 500 nmol, T = 100° C., P = 100 PSI
Experimental: as §1, §2
as §3, with “B: Ethylene homopolymerization (PE).” for “A: Ethylene-octene copolymerization (EO).”, “ethylene” for “ethylene-octene”

In the case of `CCCCCCCCCCCCCCCCCCN(C)c1cccc2c([NH+](C)CCCCCCCCCCCCCCCCCC)cccc12.Fc1c(F)c(F)c2c(F)c([B-](c3c(F)c(F)c4c(F)c(F)c(F)c(F)c4c3F)(c3c(F)c(F)c4c(F)c(F)c(F)c(F)c4c3F)c3c(F)c(F)c4c(F)c(F)c(F)c(F)c4c3F)c(F)c(F)c2c1F` [DANH-BF28], the “activity” value [1] is reported as 466 kg/mmol/h and 445 kg/mmol/h and 421 kg/mmol/h and 397 kg/mmol/h and the “activity” value [2] is reported as 388 kg/mmol/h and 364 kg/mmol/h and 478 kg/mmol/h and 416 kg/mmol/h.
In the case of “N,N-Dimethylanilinium tetrakis(pentafluorophenyl)borate [DMAH-BF20, reference compound]”, the “activity” value [1] is reported as 526 kg/mmol/h and 359 kg/mmol/h and 668 kg/mmol/h and 689 kg/mmol/h and the “activity” value [2] is reported as 366 kg/mmol/h and 380 kg/mmol/h and 516 kg/mmol/h and 454 kg/mmol/h.
For `CCCCCCCCCCCCCCCCCCN(C)c1cccc2c([NH+](C)CCCCCCCCCCCCCCCCCC)cccc12.Fc1c(F)c(F)c([B-](c2c(F)c(F)c(F)c(F)c2F)(c2c(F)c(F)c(F)c(F)c2F)c2c(F)c(F)c(F)c(F)c2F)c(F)c1F` [DANH-BF20], the “activity” value [1] was 545 kg/mmol/h and 661 kg/mmol/h and 448 kg/mmol/h and 492 kg/mmol/h and the “activity” value [2] was 406 kg/mmol/h and 410 kg/mmol/h and 442 kg/mmol/h and 454 kg/mmol/h.
